The record followed here is US20240398784A1, “C-LINKED ISOQUINOLINE AMIDES AS LRRK2 INHIBITORS, PHARMACEUTICAL COMPOSITIONS, AND USES THEREOF” (Merck Sharp & Dohme LLC, priority 2021, published 2024).

The experiment deals with LRRK2 G2019S (Homo sapiens, UniProt Q5S007, G2019S). Put plainly: LRRK2 G2019S Km ATP LanthaScreen assay. It is filed as biochemical. As to conditions: read-out: LRRK2 pIC50 (converted).

Each structure is given as a SMILES string.

Sequence of LRRK2 G2019S (Q5S007 whole entry G2019S): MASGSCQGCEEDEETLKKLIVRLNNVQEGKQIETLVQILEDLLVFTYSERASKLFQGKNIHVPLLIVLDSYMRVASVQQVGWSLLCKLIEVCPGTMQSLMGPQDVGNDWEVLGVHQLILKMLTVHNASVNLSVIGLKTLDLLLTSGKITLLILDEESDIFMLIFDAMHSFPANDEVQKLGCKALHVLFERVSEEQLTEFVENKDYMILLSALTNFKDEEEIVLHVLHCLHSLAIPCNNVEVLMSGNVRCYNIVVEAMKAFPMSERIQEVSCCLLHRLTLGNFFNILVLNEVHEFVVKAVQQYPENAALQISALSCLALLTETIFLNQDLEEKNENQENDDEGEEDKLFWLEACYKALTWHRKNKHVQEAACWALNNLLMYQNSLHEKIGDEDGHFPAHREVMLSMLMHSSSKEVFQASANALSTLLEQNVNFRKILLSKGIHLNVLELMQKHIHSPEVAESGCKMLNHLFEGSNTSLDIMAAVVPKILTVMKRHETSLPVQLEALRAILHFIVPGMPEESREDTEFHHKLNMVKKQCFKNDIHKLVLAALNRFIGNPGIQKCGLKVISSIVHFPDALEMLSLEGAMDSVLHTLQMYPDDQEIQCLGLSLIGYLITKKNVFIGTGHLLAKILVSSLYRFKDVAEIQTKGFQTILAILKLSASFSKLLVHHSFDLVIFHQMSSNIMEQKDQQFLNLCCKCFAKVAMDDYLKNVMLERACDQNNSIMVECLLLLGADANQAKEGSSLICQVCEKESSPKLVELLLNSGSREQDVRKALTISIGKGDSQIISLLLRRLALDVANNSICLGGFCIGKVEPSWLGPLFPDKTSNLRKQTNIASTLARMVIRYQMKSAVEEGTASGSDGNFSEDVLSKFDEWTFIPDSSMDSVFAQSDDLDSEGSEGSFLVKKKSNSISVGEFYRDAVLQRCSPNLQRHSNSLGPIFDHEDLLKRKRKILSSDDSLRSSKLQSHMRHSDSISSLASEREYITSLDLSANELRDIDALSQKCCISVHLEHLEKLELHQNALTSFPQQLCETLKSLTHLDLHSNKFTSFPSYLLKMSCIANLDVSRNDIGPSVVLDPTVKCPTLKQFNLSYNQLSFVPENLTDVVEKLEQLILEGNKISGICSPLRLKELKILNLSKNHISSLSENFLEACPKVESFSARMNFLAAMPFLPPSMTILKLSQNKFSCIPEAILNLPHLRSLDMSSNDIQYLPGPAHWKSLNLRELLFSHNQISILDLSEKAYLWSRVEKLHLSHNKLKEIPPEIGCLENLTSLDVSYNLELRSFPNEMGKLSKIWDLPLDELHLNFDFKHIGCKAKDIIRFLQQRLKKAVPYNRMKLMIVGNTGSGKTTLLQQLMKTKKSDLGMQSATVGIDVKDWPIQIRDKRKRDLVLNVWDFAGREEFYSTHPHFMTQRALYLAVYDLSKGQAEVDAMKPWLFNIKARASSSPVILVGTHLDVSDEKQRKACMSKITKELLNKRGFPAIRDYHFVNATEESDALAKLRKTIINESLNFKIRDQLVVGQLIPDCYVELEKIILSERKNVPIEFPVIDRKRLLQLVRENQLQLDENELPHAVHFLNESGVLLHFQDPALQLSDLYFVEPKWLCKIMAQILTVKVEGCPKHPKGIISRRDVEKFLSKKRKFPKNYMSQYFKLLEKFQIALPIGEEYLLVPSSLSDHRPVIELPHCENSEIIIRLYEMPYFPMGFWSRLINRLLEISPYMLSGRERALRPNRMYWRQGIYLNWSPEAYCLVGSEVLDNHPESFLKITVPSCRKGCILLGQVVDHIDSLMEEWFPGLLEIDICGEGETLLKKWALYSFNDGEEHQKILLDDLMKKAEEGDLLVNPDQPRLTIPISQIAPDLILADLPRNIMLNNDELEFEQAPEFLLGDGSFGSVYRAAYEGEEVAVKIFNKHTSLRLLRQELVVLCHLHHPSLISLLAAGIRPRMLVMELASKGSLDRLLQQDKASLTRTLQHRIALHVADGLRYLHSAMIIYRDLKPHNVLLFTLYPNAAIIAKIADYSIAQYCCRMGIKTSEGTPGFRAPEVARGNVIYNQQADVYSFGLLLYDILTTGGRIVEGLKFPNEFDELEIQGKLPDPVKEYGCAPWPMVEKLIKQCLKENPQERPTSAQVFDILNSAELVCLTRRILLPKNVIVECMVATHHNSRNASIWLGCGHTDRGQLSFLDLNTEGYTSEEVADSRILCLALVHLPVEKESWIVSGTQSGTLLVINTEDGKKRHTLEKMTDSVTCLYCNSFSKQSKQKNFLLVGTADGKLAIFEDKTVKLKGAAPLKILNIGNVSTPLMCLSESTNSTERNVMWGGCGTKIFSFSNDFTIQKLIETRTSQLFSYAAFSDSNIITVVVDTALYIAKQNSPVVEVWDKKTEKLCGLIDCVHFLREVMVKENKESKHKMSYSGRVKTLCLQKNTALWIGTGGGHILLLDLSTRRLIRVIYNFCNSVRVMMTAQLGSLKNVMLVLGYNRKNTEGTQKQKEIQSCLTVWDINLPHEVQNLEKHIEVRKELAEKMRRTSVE

Consider `CC(C)c1cc2cc(NC(=O)C3CC3c3cnn(C)c3)ncc2cc1Cl` (stereo not drawn) [Ex-21.1, N-(7-chloro-6-isopropylisoquinolin-3-yl)-2-(1-methyl-1H-pyrazol-4-yl)cyclopropane-1-carboxamide], for which the IC50 is 0.0813 nM.

On to `N#CC1(c2ccc3cnc(NC(=O)C4CC4)cc3c2)CCC1` [Ex-17.2], for which the IC50 was 14.5 nM.

In the case of `CC1(N2CCC(c3cc4cc(NC(=O)C5CC5c5cccnc5)ncc4cc3Cl)CC2)COCC1O` (single isomer, unassigned) [Ex-4.41, N-(7-chloro-6-(1-(4-hydroxy-3-methyltetrahydrofuran-3-yl)piperidin-4-yl)isoquinolin-3-yl)-2-(pyridin-3-yl)cyclopropane-1-carboxamide], the IC50 is 45.7 nM. The same measure for `CC(C)(O)C1CC1C(=O)Nc1cc2cc(C3CCN(C4(C)CCOC4)CC3)c(Cl)cc2cn1` (single isomer, unassigned) [Ex-6.13, N-(7-chloro-6-(1-(3-methyltetrahydrofuran-3-yl)piperidin-4-yl)isoquinolin-3-yl)-2-(2-hydroxypropan-2-yl)cyclopropane-1-carboxamide]: 5.89 nM.

`Cc1cc2cnc(NC(=O)C3CC3c3ccccn3)cc2cc1C1CCN(C2(C)CCOC2)CC1` (single isomer, unassigned) [Ex-16.9, N-(7-methyl-6-(1-(3-methyltetrahydrofuran-3-yl)piperidin-4-yl)isoquinolin-3-yl)-2-(pyridin-2-yl)cyclopropane-1-carboxamide]: the IC50 was 0.132 nM. In the case of `CC1(N2CCC(c3cc4cc(NC(=O)C5CCC5C#N)ncc4cc3Cl)CC2)COCC1F` (stereo not drawn) [Ex-2.94], the IC50 is 0.0813 nM. Next, `CC1(C)CC(C(=O)Nc2cc3cc(C4CCC(N5CCC(F)C5)CC4)c(Cl)cc3cn2)CCO1` (single isomer, unassigned) [Ex-5.16, N-(7-chloro-6-(4-(3-fluoropyrrolidin-1-yl)cyclohexyl)isoquinolin-3-yl)-2,2-dimethyltetrahydro-2H-pyran-4-carboxamid]: 389 nM; `CC1(N2CCC(c3cc4cc(NC(=O)C5CC(c6ccccn6)C5)ncc4cc3Cl)CC2)COCC1O` (single isomer, unassigned) [Ex-4.75, N-(7-chloro-6-(1-(4-hydroxy-3-methyltetrahydrofuran-3-yl)piperidin-4-yl)isoquinolin-3-yl)-3-(pyridin-2-yl)cyclobutane-1-carboxamide]: 100 nM.

Turning to `CC1(C)C(C(=O)Nc2cc3cc(C4CCN(C5(C)COCC5O)CC4)c(Cl)cc3cn2)C1c1ccccn1` (single isomer, unassigned) [Ex-4.46, N-(7-chloro-6-(1-(4-hydroxy-3-methyltetrahydrofuran-3-yl)piperidin-4-yl)isoquinolin-3-yl)-2,2-dimethyl-3-(pyridin-2-yl)cyclopropane-1-carboxamide], the IC50 was 3.55 nM. For the compound `CC1CC(C(=O)Nc2cc3cc(C4CCN(C5(C)COC5)CC4)c(Cl)cc3cn2)C1` (racemic) [Ex-1.16, Rac-N-(7-chloro-6-(1-(3-methyloxetan-3-yl)piperidin-4-yl)isoquinolin-3-yl)-3-methylcyclobutane-1-carboxamide], the IC50 is 5.5 nM.

Take `CC1(N2CCC(c3cc4cc(NC(=O)C5CC5c5ccco5)ncc4cc3Cl)CC2)COCC1O` (single isomer, unassigned) [Ex-4.65, N-(7-chloro-6-(1-(4-hydroxy-3-methyltetrahydrofuran-3-yl)piperidin-4-yl)isoquinolin-3-yl)-2-(furan-2-yl)cyclopropane-1-carboxamide]: the IC50 was 0.708 nM. On to `Cc1cc2cnc(NC(=O)C3CC34CCOC4)cc2cc1C1CCN(C2(C)COCC2F)CC1` (single isomer, unassigned) [Ex-15.10, N-(6-(1-(4-fluoro-3-methyltetrahydrofuran-3-yl)piperidin-4-yl)-7-methylisoquinolin-3-yl)-5-oxaspiro[2.4]heptane-1-carboxamide], for which the IC50 is 2 nM.
